The record followed here is US20250235460A1, “COMBINATION THERAPY USING GLUCOSE-DEPENDENT INSULINOTROPIC POLYPEPTIDE RECEPTOR ANTAGONIST COMPOUNDS AND GLP-1 RECEPTOR AGONIST COMPOUNDS” (Pfizer Inc., priority 2024, published 2025).

In test [1] the target is human GLP-1R (Homo sapiens, UniProt P43220, G168S). As to the kind of experiment: CHO GLP-1R Clone H6 cAMP HTRF agonist assay (Assay 1, high receptor density). It is filed as cell-based. The conditions noted are these: for EC50: CHO GLP-1R clone H6, cAMP HTRF, geometric mean; for Emax: CHO GLP-1R clone H6, arithmetic mean, relative to saturating GLP-1 (1 μM), read-out: Assay 1 Emax (%). The gist of the method:
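Two significant figures are used throughout. Each EC50 is the geometric mean of its replicates, and each Emax is the arithmetic mean.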
A general note: Time-resolved FRET reads energy transfer from a long-lived donor to a nearby acceptor.

Test [2] deals with human GLP-1R (Homo sapiens, UniProt P43220, L260F). Kind of test: CHO GLP-1R Clone C6 cAMP HTRF agonist assay (Assay 2, low receptor density). It is filed as cell-based. The conditions noted are these: for EC50: CHO GLP-1R clone C6, cAMP HTRF, geometric mean; for Emax: CHO GLP-1R clone C6, arithmetic mean, relative to saturating GLP-1 (1 μM). An excerpt: In Table 5 and Table 6, assay data are presented to two (2) significant figures as the geometric mean (EC50s) and arithmetic mean (Emax) based on the number of replicates listed (Number). A blank cell means there was no data for that Example or the Emax was not calculated.
human GLP-1R (Homo sapiens, UniProt P43220, L260F), sequence (P43220 24-463 L260F): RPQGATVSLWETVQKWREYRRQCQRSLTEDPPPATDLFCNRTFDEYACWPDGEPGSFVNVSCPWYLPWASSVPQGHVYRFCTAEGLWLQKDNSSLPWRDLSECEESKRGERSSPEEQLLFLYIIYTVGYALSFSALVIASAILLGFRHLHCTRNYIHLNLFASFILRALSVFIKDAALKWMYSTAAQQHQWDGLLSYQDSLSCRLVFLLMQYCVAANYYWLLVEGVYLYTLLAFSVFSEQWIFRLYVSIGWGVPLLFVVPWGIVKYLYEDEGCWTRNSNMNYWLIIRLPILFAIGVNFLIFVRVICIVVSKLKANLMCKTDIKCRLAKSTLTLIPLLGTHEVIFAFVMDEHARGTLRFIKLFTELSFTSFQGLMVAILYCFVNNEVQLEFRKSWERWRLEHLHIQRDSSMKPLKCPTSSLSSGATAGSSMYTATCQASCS

SMILES strings stand for the structures.

The term EC50 denotes the concentration that produces a half-maximal response. Higher therefore signals weaker potency. The Emax is the greatest response seen or fitted, relative to the assay's reference.

human GLP-1R (Homo sapiens, UniProt P43220, G168S), sequence (P43220 24-463 G168S): as the sequence (P43220 24-463 L260F) above, with G145S, F237L counted along it

With `COCC1(Cn2c(CN3CCC(c4cccc(OCc5ccc(Cl)cc5F)n4)CC3)nc3ccc(C(=O)O)cc32)CCC1` [Compound 347B, 2-[(4-{6-[(4-chloro-2-fluorobenzyl)oxy]pyridin-2-yl}piperidin-1-yl)methyl]-1-{[1-(methoxymethyl)cyclobutyl]methyl}-1H-benzimidazole-6-carboxylic acid], on human GLP-1R [1], the EC50 stood at 6.9 nM and the Emax was 78%. In addition, on human GLP-1R [2], the response was half-maximal at 170 nM (EC50) and the Emax was determined as 96%.
For the compound `CCn1c(CN2CCC(c3cccc(OCc4ccc(Cl)cc4F)n3)CC2)nc2ccc(C(=O)O)cc21` [Compound 257B, 2-[(4-{6-[(4-chloro-2-fluorobenzyl)oxy]pyridin-2-yl}piperidin-1-yl)methyl]-1-ethyl-1H-benzimidazole-6-carboxylic acid], the EC50 at human GLP-1R [1] stood at 8.6 nM; on human GLP-1R [2], 88 nM. Further, the results for the Emax on human GLP-1R [1] and at human GLP-1R [2] were 78% and 82%, respectively.
For `COCCn1c(CN2CC[C@H](c3cccc(OCc4ccc(Cl)cc4F)n3)[C@H](O)C2)nc2ccc(C(=O)O)cc21` (racemic) [Compound 191B, rac-2-{[(3R,4S)-4-{6-[(4-chloro-2-fluorobenzyl)oxy]pyridin-2-yl}-3-hydroxypiperidin-1-yl]methyl}-1-(2-methoxyethyl)-1H-benzimidazole-6-carboxylic acid], the EC50 came to 0.55 nM on human GLP-1R [1] and 9.2 nM on human GLP-1R [2]. In addition, the Emax on human GLP-1R [1] came out at 77%; at human GLP-1R [2], 94%.
The matching figures for `N#Cc1ccc(COc2cccc(C3CCN(Cc4nc5ccc(C(=O)O)cc5n4CC4CCCO4)CC3)n2)cc1` (stereo not drawn) [Compound 359B, 2-[(4-{6-[(4-cyanobenzyl)oxy]pyridin-2-yl}piperidin-1-yl)methyl]-1-(tetrahydrofuran-2-ylmethyl)-1H-benzimidazole-6-carboxylic acid]: 1.9 nM, 55 nM, 63% and 75%.
With `COCCn1c(CN2CC[C@@H](c3cccc(OCc4ccc(Cl)cc4F)n3)C[C@H]2C)nc2ccc(C(=O)O)cc21` (relative stereo) [Compound 358B, cis 2-{[4-{6-[(4-Chloro-2-fluorobenzyl)oxy]pyridin-2-yl}-2-methylpiperidin-1-yl]methyl}-1-(2-methoxyethyl)-1H-benzimidazole-6-carboxylic acid], at human GLP-1R [1], the EC50 is 4.2 nM and the maximum response (Emax) was 69%. At human GLP-1R [2], this compound gave an EC50 of 77 nM and an Emax of 75%.
As for `COCCn1c(CN2CCN(c3cccc(OCc4ccc(Cl)cc4F)n3)[C@H](C)C2)nc2ccc(C(=O)O)cc21` [Compound 184B, 2-{[(3R)-4-{6-[(4-chloro-2-fluorobenzyl)oxy]pyridin-2-yl}-3-methylpiperazin-1-yl]methyl}-1-(2-methoxyethyl)-1H-benzimidazole-6-carboxylic acid], on human GLP-1R [1], the EC50 was found to be 3.2 nM and the Emax was 77%. Further, on human GLP-1R [2], the EC50 is 43 nM and the maximal effect (Emax) turned out to be 84%.
For `CN1CC(Cn2c(CN3CCC(c4cccc(OCc5ccc(Cl)cc5F)n4)CC3)nc3ccc(C(=O)O)cc32)C1` [Compound 243B, 2-[(4-{6-[(4-chloro-2-fluorobenzyl)oxy]pyridin-2-yl}piperidin-1-yl)methyl]-1-[(1-methylazetidin-3-yl)methyl]-1H-benzimidazole-6-carboxylic acid], the values for the EC50 on human GLP-1R [1] and on human GLP-1R [2] were 4.7 nM and 84 nM, respectively. Moreover, the maximum response (Emax) at human GLP-1R [1] was determined as 71%; on human GLP-1R [2], 83%.
The matching figures for `Cc1nnc(Cn2c(CN3CCC(c4cccc(OCc5ccc(Cl)cc5F)n4)CC3)nc3ccc(C(=O)O)cc32)o1` [Compound 254B, 2-[(4-{6-[(4-chloro-2-fluorobenzyl)oxy]pyridin-2-yl}piperidin-1-yl)methyl]-1-[(5-methyl-1,3,4-oxadiazol-2-yl)methyl]-1H-benzimidazole-6-carboxylic acid]: 5 nM, 72 nM, 65% and 87%.
As for `O=C(O)c1ccc2nc(CN3CCC(c4cccc(OCc5ccc(Cl)cc5F)n4)CC3)n(CCO)c2c1` [Compound 262B, 2-[(4-{6-[(4-chloro-2-fluorobenzyl)oxy]pyridin-2-yl}piperidin-1-yl)methyl]-1-(2-hydroxyethyl)-1H-benzimidazole-6-carboxylic acid], at human GLP-1R [1], the concentration giving a half-maximal response (EC50) is 1.6 nM and the Emax came to 83%. On human GLP-1R [2], this compound registered a concentration giving a half-maximal response (EC50) of 28 nM and a maximum response (Emax) of 88%.
With `Cc1nnc(CCn2c(CN3CCC(c4cccc(OCc5ccc(Cl)cc5F)n4)CC3)nc3ccc(C(=O)O)cc32)o1` [Compound 253B, 2-[(4-{6-[(4-chloro-2-fluorobenzyl)oxy]pyridin-2-yl}piperidin-1-yl)methyl]-1-[2-(5-methyl-1,3,4-oxadiazol-2-yl)ethyl]-1H-benzimidazole-6-carboxylic acid], the EC50 at human GLP-1R [1] was found to be 2 nM; at human GLP-1R [2], 20 nM. In addition, the Emax came out at 84% on human GLP-1R [1] and 87% at human GLP-1R [2].
On the same counts, the results for `Cn1c(CN2CCC(c3cccc(OCc4cccc(C#N)c4)n3)CC2)nc2ccc(C(=O)O)cc21` [Compound 231B, 2-[(4-{6-[(3-cyanobenzyl)oxy]pyridin-2-yl}piperidin-1-yl)methyl]-1-methyl-1H-benzimidazole-6-carboxylic acid] are 0.3 nM, 4.4 nM, 80% and 95%.
On to `COCCn1c(CN2CCN(c3ccc(F)c(OCc4ccc(C#N)cc4)n3)C[C@@H]2C)nc2ccc(C(=O)O)cc21` [Compound 175B, 2-{[(2S)-4-{6-[(4-cyanobenzyl)oxy]-5-fluoropyridin-2-yl}-2-methylpiperazin-1-yl]methyl}-1-(2-methoxyethyl)-1H-benzimidazole-6-carboxylic acid], for which the results for the EC50 on human GLP-1R [1] and on human GLP-1R [2] were 170 nM and 2100 nM, respectively. Besides, the Emax came to 78% on human GLP-1R [1] and 71% on human GLP-1R [2].
Turning to `O=C(O)c1ccc2nc(CN3CCC(c4cccc(OCc5ccc(Cl)cc5F)n4)CC3)n(C3CCOC3)c2c1` (stereo not drawn) [Compound 301B, 2-[(4-{6-[(4-chloro-2-fluorobenzyl)oxy]pyridin-2-yl}piperidin-1-yl)methyl]-1-(tetrahydrofuran-3-yl)-1H-benzimidazole-6-carboxylic acid], the EC50 at human GLP-1R [1] was 120 nM; on human GLP-1R [2], 1500 nM. For the same compound, the Emax worked out at 80% at human GLP-1R [1] and 92% at human GLP-1R [2].
Take `COCCn1c(CN2CC[C@H](c3cccc(OCc4ccc(Cl)cc4F)n3)[C@H](C)C2)nc2ccc(C(=O)O)cc21` (racemic) [Compound 192B, rac-2-{[(3R,4R)-4-{6-[(4-chloro-2-fluorobenzyl)oxy]pyridin-2-yl}-3-methylpiperidin-1-yl]methyl}-1-(2-methoxyethyl)-1H-benzimidazole-6-carboxylic acid]: on human GLP-1R [1], a half-maximal response (EC50) required 0.99 nM and the Emax worked out at 95%. At human GLP-1R [2], this compound registered an EC50 of 10 nM and an Emax of 120%.
On to `Cn1ccnc1Cn1c(CN2CCC(c3cccc(OCc4ccc(Cl)cc4F)n3)CC2)nc2ccc(C(=O)O)cc21` [Compound 256B, 2-[(4-{6-[(4-chloro-2-fluorobenzyl)oxy]pyridin-2-yl}piperidin-1-yl)methyl]-1-[(1-methyl-1H-imidazol-2-yl)methyl]-1H-benzimidazole-6-carboxylic acid], for which the concentration giving a half-maximal response (EC50) on human GLP-1R [1] came to 3.4 nM; at human GLP-1R [2], 53 nM. Moreover, the Emax on human GLP-1R [1] is 79%; on human GLP-1R [2], 68%.
On the same counts, the results for `Cn1cnnc1Cn1c(CN2CCC(c3cccc(OCc4ccc(Cl)cc4F)n3)CC2)nc2ccc(C(=O)O)cc21` [Compound 345B, 2-[(4-{6-[(4-chloro-2-fluorobenzyl)oxy]pyridin-2-yl}piperidin-1-yl)methyl]-1-[(4-methyl-4H-1,2,4-triazol-3-yl)methyl]-1H-benzimidazole-6-carboxylic acid] are 6.1 nM, 150 nM, 89% and 97%.
As for `CCc1nc(Cn2c(CN3CCC(c4cccc(OCc5ccc(Cl)cc5F)n4)CC3)nc3ccc(C(=O)O)cc32)no1` [Compound 263B, 2-[(4-{6-[(4-chloro-2-fluorobenzyl)oxy]pyridin-2-yl}piperidin-1-yl)methyl]-1-[(5-ethyl-1,2,4-oxadiazol-3-yl)methyl]-1H-benzimidazole-6-carboxylic acid], at human GLP-1R [1], the response was half-maximal at 33 nM (EC50) and the maximum response (Emax) is 80%. In addition, at human GLP-1R [2], the EC50 was 670 nM and the maximum response (Emax) was determined as 110%.
Turning to `CC(C)c1cc(Cn2c(CN3CCC(c4cccc(OCc5ccc(Cl)cc5F)n4)CC3)nc3ccc(C(=O)O)cc32)on1` [Compound 281B, 2-[(4-{6-[(4-chloro-2-fluorobenzyl)oxy]pyridin-2-yl}piperidin-1-yl)methyl]-1-{[3-(propan-2-yl)-1,2-oxazol-5-yl]methyl}-1H-benzimidazole-6-carboxylic acid], on human GLP-1R [1], it took 14 nM to reach a half-maximal effect (EC50) and the maximal response (Emax) is 80%. Moreover, on human GLP-1R [2], the concentration giving a half-maximal response (EC50) is 270 nM and the Emax turned out to be 92%.
On to `C[C@H]1CN(c2cccc(OCc3ccc(C#N)cc3)n2)CCN1Cc1nc2ccc(C(=O)O)cc2n1CC1CCCO1` (stereo partly drawn) [Compound 362B, 2-{[(2S)-4-{6-[(4-cyanobenzyl)oxy]pyridin-2-yl}-2-methylpiperazin-1-yl]methyl}-1-(tetrahydrofuran-2-ylmethyl)-1H-benzimidazole-6-carboxylic acid], for which, at human GLP-1R [1], the EC50 came to 12 nM and the Emax is 64%. This compound also yielded a concentration for a half-maximal effect (EC50) at human GLP-1R [2] of 270 nM.
